Measurements from PMC6982876, “Synthesis of Novel Benzodifuranyl; 1,3,5-Triazines; 1,3,5-Oxadiazepines; and Thiazolopyrimidines Derived from Visnaginone and Khellinone as Anti-Inflammatory and Analgesic Agents” (Molecules, 2020).
Marks after values point to notes of the source that are not given here.

Legend:
ovine COX-1 = biological target: T1, ovine COX-1 (Ovis aries, UniProt P05979); test: In vitro COX inhibitor screening assay (EIA kit, Cayman), COX-1; format: biochemical; details: mean of two determinations, enzyme kit, read-out: COX1 IC50
T1 construct: purchased Cayman Chemical, Ann Arbor, MI, USA 560131
T1 sequence (P05979 25-600): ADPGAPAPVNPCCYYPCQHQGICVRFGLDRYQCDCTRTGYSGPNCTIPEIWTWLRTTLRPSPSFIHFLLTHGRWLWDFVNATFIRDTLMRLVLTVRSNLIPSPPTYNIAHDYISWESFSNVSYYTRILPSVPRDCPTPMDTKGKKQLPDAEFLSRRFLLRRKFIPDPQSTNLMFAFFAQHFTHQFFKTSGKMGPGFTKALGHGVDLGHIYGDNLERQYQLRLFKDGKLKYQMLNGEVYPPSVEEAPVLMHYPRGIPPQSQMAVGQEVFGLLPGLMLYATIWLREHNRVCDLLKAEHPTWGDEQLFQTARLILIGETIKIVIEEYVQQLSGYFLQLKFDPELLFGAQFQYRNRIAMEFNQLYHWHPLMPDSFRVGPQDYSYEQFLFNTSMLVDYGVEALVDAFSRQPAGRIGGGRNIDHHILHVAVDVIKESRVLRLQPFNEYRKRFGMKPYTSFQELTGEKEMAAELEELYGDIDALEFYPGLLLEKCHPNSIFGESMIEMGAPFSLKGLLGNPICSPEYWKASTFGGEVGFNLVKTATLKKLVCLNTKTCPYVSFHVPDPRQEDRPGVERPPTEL
Procedure: (§1) Furthermore, the selectivity index for COX-2 (COX-1 IC50 / COX-2 IC50) was calculated for the compounds.

human recombinant COX-2 = biological target: T2, human recombinant COX-2 (Homo sapiens, UniProt P35354); test: In vitro COX inhibitor screening assay (EIA kit, Cayman), COX-2; format: biochemical; details: for COX2 (SI) selectivity index: COX-1 IC50 / COX-2 IC50; for IC50: COX-2, mean of two determinations, enzyme kit, read-out: COX2 IC50
T2 construct: purchased Cayman Chemical, Ann Arbor, MI, USA 560131
T2 sequence (P35354 18-604): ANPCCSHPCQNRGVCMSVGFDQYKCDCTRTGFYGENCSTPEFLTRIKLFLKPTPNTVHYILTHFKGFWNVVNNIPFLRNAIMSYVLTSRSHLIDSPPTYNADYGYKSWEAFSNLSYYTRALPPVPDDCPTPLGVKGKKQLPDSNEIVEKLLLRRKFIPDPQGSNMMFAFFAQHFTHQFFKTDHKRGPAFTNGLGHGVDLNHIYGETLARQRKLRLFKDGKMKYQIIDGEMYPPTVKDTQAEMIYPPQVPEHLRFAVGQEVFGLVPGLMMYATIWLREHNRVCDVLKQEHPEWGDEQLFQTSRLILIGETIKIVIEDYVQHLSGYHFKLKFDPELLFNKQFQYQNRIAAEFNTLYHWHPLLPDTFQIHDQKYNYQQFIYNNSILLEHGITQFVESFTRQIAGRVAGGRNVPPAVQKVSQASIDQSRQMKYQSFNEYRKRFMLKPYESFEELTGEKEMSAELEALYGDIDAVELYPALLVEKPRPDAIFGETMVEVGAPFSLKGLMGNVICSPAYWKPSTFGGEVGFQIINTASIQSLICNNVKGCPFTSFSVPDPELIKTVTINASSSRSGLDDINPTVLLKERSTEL
Procedure: as §1

[1] = system: acetic acid-induced writhing in mice; test: Acetic acid-induced writhing test (analgesic activity); format: in vivo; details: 10 mg/kg p.o.; for Writhing Number in 20 min (Mean ± SEM): acetic acid 1 h after dosing; for Analgesic Activity (% protection): writhing test
Procedure: The analgesic activity of the compounds was performed using the writhing test as described by Gawade et al.. Mice weight ranged from 25 to 30 g. Then, mice were divided into 18 different groups, each containing five animals. The animals fasted for 8 h before the experiment. Administration of the compounds (10 mg/kg, p.o.) was performed orally. Equal doses of diclofenac as the reference drug and saline as a negative control were also administrated orally. Writhing was induced one hour after compound administration by using 0.1 mL of 1% glacial acetic acid at a volume of 0.1 mL/10 g body weight. The number of writhing responses (stretching of the abdomen, extension of hind limbs, twisting of the trunk, and elongation of the body) observed was counted for 20 min. The protection percentile against acetic acid-induced writhing was calculated according to the following formula: (1) Analgesic activity (%) =n−n′/n×100* where n is the mean number of writhes of the control group, and n’ is the mean number of writhes of the tested compound group.

[2] = system: carrageenan-induced paw edema in rats; test: Carrageenan-induced paw edema (anti-inflammatory activity); format: in vivo; details: 10 mg/kg oral; for % Change in Paw Height (Mean ± SEM): n = 5
Procedure: Albino rats (150–180 g) were used. The rats were divided into 11 experimental groups of five rats each. One hour after oral administration of the compounds (10 mg/kg), 0.1 mL of 1% carrageenan solution was injected in the left hind paw of each animal. Rat paw volumes were measured with a digital caliber plethysmometer (UGO Basile, Varese, Italy) used to measure inflammation height at 0, 1, 2, and 3 h after carrageenan injection. The percentage increase in inflammation in the left hind paw, in comparison to the uninjected right hind paw, was determined, calculated, and expressed as the amount of inflammation. […] The anti-inflammatory activity of the selected analgesic compounds after 3 h was expressed as percentage inhibition of edema, which was calculated according to the following equation: (2) Inhibition of edema (%) =Vcont−Vtest/Vcont×100* where V cont is the edema volume in the control group, and V test is the edema volume in the group of the screened compound.

Compound	IC50 (ovine COX-1) [µM]	COX2 (SI) selectivity index (human recombinant COX-2)	IC50 (human recombinant COX-2) [µM]	melting point [°C]	Writhing Number in 20 min (Mean ± SEM) ([1]; n = 5)	Analgesic Activity (% protection) ([1]; n = 5) [%]	% Change in Paw Height (Mean ± SEM) ([2]; 1 hr after carrageenan)	% Change in Paw Height (Mean ± SEM) ([2]; 2 hr after carrageenan)	Anti-Inflammatory Activity (% Inhibition of Edema) ([2]; 3 hr after carrageenan) [%]	% Change in Paw Height (Mean ± SEM) ([2]; 3 hr after carrageenan)	Analgesic Activity (% protection) ([1]; n = 5, 10 mg/kg)	Analgesic Activity (% protection) ([1]; n = 5, listed as sodium diclofenac, 10 mg/kg) [%]
COc1c2ccoc2cc2oc(C(Cl)=Nc3cc(Cl)nc(=S)[nH]3)c(C)c12 [Compound 8a, N-(6-chloro-2-thioxo-2,3-dihydropyrimidin-4-yl)-4-methoxy-3-methylbenzo [1,2-b: 5,4-b`] difuran-2-carbimidoyl chloride]	17	61	0.28	337 to 339	48 ± 1.9 ^a,b	27 ± 0.60	0.37 ± 0.02 ^a %	0.30 ± 0.03 ^a %	40	0.37 ± 0.02 ^a %	–	–
COc1c2ccoc2cc2oc(C(=O)Nc3cc(=O)[nH]c(SCC(=O)O)n3)c(C)c12 [Compound 6a, 2-((4-(4-methoxy-3-methylbenzo [1,2-b: 5,4-b`]difuran-2-carboxamido)-6-oxo-1,6-dihydropyrimidin-2-yl)thio) acetic acid]	17.5	51	0.345	278 to 280	50 ± 1.6 ^a,b	25 ± 0.50	0.39 ± 0.01 ^a %	0.32 ± 0.02 ^a %	35	0.41 ± 0.02 ^a %	–	–
COc1c(C(C)=O)c(OCC(=O)Nc2cc(=O)[nH]c(=S)[nH]2)cc2occc12 [Compound 4a, 2-((5-acetyl-4-methoxybenzofuran-6-yl)oxy)-N-(6-oxo-2-thioxo-1,2,3,6-tetrahydropyrimidin-4-yl) acetamide]	18.8	41	0.46	170 to 172	–	18 ± 1.20	–	0.40 ± 0.02 ^a %	–	0.49 ± 0.02 ^a %	–	–
COc1c(C(C)=O)c(OCC(=O)Nc2cc(=O)[nH]c(=S)[nH]2)c(OC)c2occc12 [Compound 4b, 2-((5-acetyl-4,7-dimethoxybenzofuran-6-yl)oxy)-N-(6-oxo-2-thioxo-1,2,3,6-tetrahydropyrimidin-4-yl) acetamide]	18.5	45	0.411	186 to 188	56 ± 1.2 ^a,b	19 ± 1.30	0.47 ± 0.04 ^a %	0.38 ± 0.03 ^a %	26	0.47 ± 0.01 ^a %	–	–
COc1c2ccoc2cc2oc(C(=O)Nc3cc(=O)[nH]c(=S)[nH]3)c(C)c12 [Compound 5a, 4-methoxy-3-methyl-N-(6-oxo-2-thioxo-1,2,3,6-tetrahydropyrimidin-4-yl) benzo [1,2-b: 5,4-b`] difuran-2-carboxamide]	18.1	48	0.375	245 to 247	54 ± 1.6 ^a,b	21 ± 2.10	0.45 ± 0.03 ^a %	0.36 ± 0.02 ^a %	28	0.46 ± 0.02 ^a %	–	–
O=C(O)Cc1ccccc1Nc1c(Cl)cccc1Cl [Diclofenac, reference compound]	–	–	–	–	25 ± 1.2 ^a	–	–	0.13 ± 0.02 ^a %	63	0.20 ± 0.01 ^a %	51 ± 1.15 ^a %	51

The next lines start with results.

IC50 (ovine COX-1) [µM]	COX2 (SI) selectivity index (human recombinant COX-2)	IC50 (human recombinant COX-2) [µM]	melting point [°C]	Compound	Writhing Number in 20 min (Mean ± SEM) ([1]; n = 5)	Analgesic Activity (% protection) ([1]; n = 5) [%]	% Change in Paw Height (Mean ± SEM) ([2]; 1 hr after carrageenan)	% Change in Paw Height (Mean ± SEM) ([2]; 2 hr after carrageenan)	Anti-Inflammatory Activity (% Inhibition of Edema) ([2]; 3 hr after carrageenan) [%]	% Change in Paw Height (Mean ± SEM) ([2]; 3 hr after carrageenan)	Analgesic Activity (% protection) ([1]; n = 5, 10 mg/kg)	Analgesic Activity (% protection) ([1]; n = 5, listed as sodium diclofenac, 10 mg/kg) [%]
15.5	63	0.245	347 to 349	COc1c2occc2c(OC)c2c(C)c(C(Cl)=Nc3cc(Cl)nc(=S)[nH]3)oc12 [Compound 8b, N-(6-chloro-2-thioxo-2,3-dihydropyrimidin-4-yl)-4,8-dimethoxy-3-methylbenzo [1,2-b: 5,4-b`] difuran-2-carbimidoyl chloride]	47 ± 2.2 ^a,b	28 ± 0.95	0.36 ± 0.01 ^a %	0.29 ± 0.02 ^a %	42	0.35 ± 0.02 ^a %	–	–
7.95	79	0.101	308 to 310	COc1c2ccoc2cc2oc(C(=O)Nc3cc(=O)n4c(n3)SCC4=O)c(C)c12 [Compound 7a, N-(3,5-dioxo-2,3-dihydro-5H-thiazolo [3,2-a]pyrimidin-7-yl)-4-methoxy-3-methylbenzo [1,2-b: 5,4-b`] difuran-2-carboxamide]	42 ± 1.8 ^a,b	33 ± 1.70	0.31 ± 0.01 ^a %	0.26 ± 0.02 ^a %	50	0.30 ± 0.02 ^a %	–	–
11.1	72	0.155	> 350	COc1c2occc2c(OC)c2c(C)c(C(Cl)=Nc3cc(Cl)nc(SC)n3)oc12 [Compound 9b, N-(6-chloro-2-(methylthio)pyrimidin-4-yl)-4,8-dimethoxy-3-methylbenzo [1,2-b: 5,4-b`] difuran-2-carbimidoyl chloride]	44 ± 2.5 ^a,b	32 ± 1.2	0.33 ± 0.02 ^a %	0.27 ± 0.01 ^a %	48	0.31 ± 0.01 ^a %	–	–
